The text below walks through data of US9593108B2, “Compounds and methods for antiviral treatment” (PTC Therapeutics, Inc., priority 2009, dated 2017).

In series [1] the test system is HCV replicon RNA (GenBank Accession No. AJ242654). As to the kind of experiment: HCV Replicon Assay (replicon RNA reduction and/or Fluc reporter signal). The conditions noted are these: Hepatitis C virus, 72 h, replicon-containing cells cultured with test compound for up to 3 days. In kind it is cell-based, Hepatitis C virus. The method in brief: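 IC50 values mostly reflect the drop in replicon RNA, though Fluc reporter signal may also be used. Compound incubated with cells carrying the bicistronic replicon for as long as 3 days; interferon served as positive control.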
(In antiviral work, replicon cells carry a viral genome segment that copies itself.)

Each structure is given as a SMILES string.

A word on the IC50: it is the concentration that gives 50% inhibition. A low value points to greater potency. In general, melting point refers to the temperature, or range, at which the solid turns liquid.

With `CC(C)NS(=O)(=O)c1ccc(-c2c(C#N)c3cc(F)cnc3n2CC2CC2)cc1` [Cpd 4, 4-[3-cyano-1-(cyclopropylmethyl)-5-fluoro-1H-pyrrolo[2,3-b]pyridin-2-yl]-N-(propan-2-yl)benzenesulfonamide], the melting point was 162 to 165 °C. In series [1], this compound showed an IC50 of 2 to 5 µM.
On the same counts, the results for `Cc1ccc2c(C#N)c(-c3ccc(S(=O)(=O)NC(C)C)cc3)n(CC3CC3)c2n1` [Cpd 5, 4-[3-cyano-1-(cyclopropylmethyl)-6-methyl-1H-pyrrolo[2,3-b]pyridin-2-yl]-N-(propan-2-yl)benzenesulfonamide] are 175 to 177 °C and less than 0.5 µM.
The like results for `CC(C)NS(=O)(=O)c1ccc(-c2c(C#N)c3cc(Cl)cnc3n2C2CCC2)cc1` [Cpd 6, 4-(5-chloro-3-cyano-1-cyclobutyl-1H-pyrrolo[2,3-b]pyridin-2-yl)-N-(propan-2-yl)benzenesulfonamide] were, in that order, 172 to 175 °C and less than 0.5 µM.
The like results for `CC(C)NS(=O)(=O)c1ccc(-c2c(C#N)c3cccnc3n2C2CCC2)cc1` [Cpd 7, 4-(3-cyano-1-cyclobutyl-1H-pyrrolo[2,3-b]pyridin-2-yl)-N-(propan-2-yl)benzenesulfonamide] were, in that order, 198 to 200 °C and 0.5 to 2 µM.
In the case of `N#Cc1c(-c2ccc(S(=O)(=O)NC(CF)CF)cc2)n(C2CCC2)c2ncc(Cl)cc12` [Cpd 8, 4-(5-chloro-3-cyano-1-cyclobutyl-1H-pyrrolo[2,3-b]pyridin-2-yl)-N-(1,3-difluoropropan-2-yl)benzenesulfonamide], the melting point lay in the range of 234 to 238 °C. Besides, the half-inhibitory concentration (IC50) in series [1] was 0.5 to 2 µM.
On to `COc1cnc2c(c1)c(C#N)c(-c1ccc(S(=O)(=O)NC(CF)CF)cn1)n2C1CCC1` [Cpd 9, 6-(3-cyano-1-cyclobutyl-5-methoxy-1H-pyrrolo[2,3-b]pyridin-2-yl)-N-(1,3-difluoropropan-2-yl)pyridine-3-sulfonamide], for which the melting point lay in the range of 161 to 163 °C. For the same compound, the IC50 in series [1] is less than 0.5 µM.
The like results for `N#Cc1c(-c2ccc(S(=O)(=O)NC(CF)CF)cn2)n(C2CCCC2)c2ncc(Cl)cc12` [Cpd 10, 6-(5-chloro-3-cyano-1-cyclopentyl-1H-pyrrolo[2,3-b]pyridin-2-yl)-N-(1,3-difluoropropan-2-yl)pyridine-3-sulfonamide] were, in that order, 208 to 209 °C and less than 0.5 µM.
On the same counts, the results for `COc1cnc2c(c1)c(C#N)c(-c1ncc(S(=O)(=O)NC(CF)CF)cn1)n2C1CCC1` [Cpd 11, 2-(3-cyano-1-cyclobutyl-5-methoxy-1H-pyrrolo[2,3-b]pyridin-2-yl)-N-(1,3-difluoropropan-2-yl)pyrimidine-5-sulfonamide] are 194 to 196 °C and 0.5 to 2 µM.
On the same counts, the results for `N#Cc1c(-c2ccc(S(=O)(=O)NC(CF)CF)cn2)n(C2CCC2)c2ncc(F)cc12` [Cpd 12, 6-(3-cyano-1-cyclobutyl-5-fluoro-1H-pyrrolo[2,3-b]pyridin-2-yl)-N-(1,3-difluoropropan-2-yl)pyridine-3-sulfonamide] are 155 to 157 °C and 0.5 to 2 µM.
`N#Cc1c(-c2ncc(S(=O)(=O)NC(CF)CF)cn2)n(C2CCC2)c2ncc(Cl)cc12` [Cpd 13, 2-(5-chloro-3-cyano-1-cyclobutyl-1H-pyrrolo[2,3-b]pyridin-2-yl)-N-(1,3-difluoropropan-2-yl)pyrimidine-5-sulfonamide] gave a melting point of 199 to 200 °C. Besides, the concentration for half-maximal inhibition (IC50) in series [1] is less than 0.5 µM.
`N#Cc1c(-c2ccc(S(=O)(=O)NC(CF)CF)cn2)n(C2CCC2)c2ncc(Cl)cc12` [Cpd 14, 6-(5-chloro-3-cyano-1-cyclobutyl-1H-pyrrolo[2,3-b]pyridin-2-yl)-N-(1,3-difluoropropan-2-yl)pyridine-3-sulfonamide] came in with a melting point of 176 to 178 °C. In series [1], this compound returned an IC50 of less than 0.5 µM.
